# Measured values reported in US20170071976A1, “PHARMACEUTICAL SOLUTION HAVING ANTI-TUMOR EFFECT-ENHANCING AND TOXICITY-REDUCING EFFECT, AND PHARMACEUTICAL COMPOSITION COMPRISING SAME” (priority 2014, published 2017).
# Like-named read-outs stand apart in the source and are kept apart here. Marks after values point to notes of the source that are not given here.
# What was measured:
# [1] = test system: xenograft tumors from human bladder cancer 5637 cells; details: Thiotepa 0.2 mg/kg × 11, tail vein; for Inhibition (%): tumor weight
# Source text: Inhibition of growth of xenograft tumors from human bladder cancer 5637 cells in nude mice by intravenous injection of deuterium oxide in combination with thiotepa
# (§1) Animal: 6 to 7 week-aged female BALB/c nude mice, each weighing 18 to 20 g, provided by Shanghai SLAC Laboratory Animal Co. Ltd.
# Cell lines: human bladder cancer 5637 cells were provided by NANJING KEYGEN BIOTECH. CO., LTD.
# Test drugs: thiotepa and the sodium chloride deuterium oxide solution, prepared in Example 1.
# (§2) Tumor cells were resuscitated and inoculated, and sterile sodium chloride physiological solution was added thereto to make a cell suspension which was subcutaneously inoculated into the upper right axillary fossa of animals. 5×10^6 tumor cells were inoculated into each animal.
# The diameter of xenograft tumors in the nude mice was measured with a vernier caliper, and 10 days after inoculation, when tumors grew to 100 to 110 cm^3, the animals were randomized. Meanwhile drugs were administered by injection into tail vein, once every three days, for 21 successive days. The body weight of animals was also recorded to observe the toxicity of the test samples. 21 days after administration, the nude mice were sacrificed, and tumors were harvested by surgery, and weighed.
# The test used 5 groups in total, with 5 animals per group.
# 1) Control group: sodium chloride physiological solution, 10 ml/kg; 2) Thiotepa positive control group: thiotepa (0.2 mg/kg) diluted in sodium chloride physiological solution; 3) Test group 1: thiotepa (0.2 mg/kg) diluted in the sodium chloride deuterium oxide solution (1 ml/kg); 4) Test group 2: thiotepa (0.2 mg/kg) diluted in the sodium chloride deuterium oxide solution (10 ml/kg); 5) Test group 3: thiotepa (0.2 mg/kg) diluted in the sodium chloride deuterium oxide solution (25 ml/kg).
# [2] = test system: liver cancer H22 ascites tumor; assay: Liver cancer H22 ascites tumor mice, intraperitoneal retention lavage with deuterium oxide and cisplatin (room temperature or 42±1° C.); format: in vivo, Kunming mice; details: cisplatin 0.6 mg/kg + Ringer's solution
# Method: Animal: 4 to 5 week-aged male Kunming mice, provided by Shanghai SIPPR-BK Laboratory Animal Co. Ltd. Cell lines: […] CO., LTD. […] Test drugs: cisplatin, and the Ringer's deuterium oxide solution as prepared in Example 6. Grouping and dosing: the mouse model was established 7 to 8 days after inoculation, and the mice were randomized with 18 animals/group. Cisplatin were dissolved in a 42±1° C. Ringer's deuterium oxide solution, and used to lavage the peritoneal cavity of the tumor-bearing mice. 1). Blank control group (normal Ringer's solution, 10 ml/kg, room temperature); 2). Normal chemo group (cisplatin 0.6 mg/kg+normal Ringer's solution, 10 ml/kg, room temperature); 3). […] Room temperature high-dose deuterium oxide+cisplatin group (Ringer's deuterium oxide solution, 40 ml/kg+cisplatin 0.6 mg/kg); 6). Hyperthermic low-dose deuterium oxide+cisplatin group (42±1° C. […] Hyperthermic mid-dose deuterium oxide+cisplatin group (42±1° C. […] Hyperthermic high-dose deuterium oxide+cisplatin group (42±1° C. Ringer's deuterium oxide solution, 40 ml/kg+cisplatin 0.6 mg/kg); […] The lavage was performed once another day for 5 successive times. […] 4. […] Statistics: the same as Example 18.
# [3] = test system: xenograft tumors from human ovarian cancer SKOV3 cells; assay: SKOV3 xenograft in nude mice, intravenous deuterium oxide in combination with paclitaxel; format: in vivo, BALB/c nude mice; details: Paclitaxel 8 mg/kg × 11, tail vein
# Source text: 3. […] 4. Statistics: the same as Example 21.
# [4] = test system: xenograft tumors from human breast cancer MCF-7 cells; assay: MCF-7 xenograft in nude mice, intravenous deuterium oxide in combination with gemcitabine; format: in vivo, BALB/c nude mice; details: Paclitaxel 8 mg/kg × 11, tail vein
# Method: Ltd. Cell lines: human breast cancer MCF-7 cells were provided by NANJING […] BIOTECH. CO., LTD. […] Bone marrow nucleated cells were isolated by a routine method, DNA was extracted from the cells, the OD value was measured in a UV-260 spectrometer as a representative of the DNA content, and inhibition of DNA synthesis by the test samples was observed. The test used 7 groups in total, with 8 animals per group. […] Statistics: the same as Example 21.
# [5] = test system: xenograft tumors from human lung cancer A549 cells; assay: A549 xenograft in nude mice, intravenous deuterium oxide in combination with gemcitabine; details: Paclitaxel 8 mg/kg × 11, tail vein; for Tumor weight: control 2.92 ± 0.27; for Inhibition (%): tumor weight
# Method: as §1
# Test drugs: gemcitabine (GEM) and the sodium chloride deuterium oxide solution prepared in Example 1.
# as §2
# The diameter of xenograft tumors in the nude mice was measured with a vernier caliper, and 10 days after inoculation, when tumors grew to 100 to 110 cm^3, the animals were randomized with 8 mice per group. Meanwhile drugs were administered by injection into tail vein, once every three days, for 21 successive days. By measuring the tumor diameter, the anti-tumor efficacy of test samples was dynamically observed. Meanwhile the body weight of animals was also recorded to observe the toxicity of the test samples. 21 days after administration, the nude mice were sacrificed, and tumors were harvested by surgery, weighed and photographed.
# 6) Test group 2: gemcitabine (10 mg/kg) diluted in the sodium chloride deuterium oxide solution (10 ml/kg). 7) Test group 3: gemcitabine (10 ml/kg) diluted in the sodium chloride deuterium oxide solution (20 ml/kg).
# [6] = test system: xenograft tumors from human colon cancer HCT-116 cells; assay: HCT-116 xenograft in nude mice, intravenous deuterium oxide in combination with 5-fluorouracil; format: in vivo, BALB/c nude mice
# Method: Ltd. Cell lines: human colon cancer cells HCT-116 were provided by NANJING […] BIOTECH. CO., LTD. […] Bone marrow nucleated cells were isolated by a routine method, DNA was extracted from the cells, the OD value was measured in a UV-260 spectrometer as a representative of the DNA content, and inhibition of DNA synthesis by the test samples was observed. The test used 7 groups in total, with 8 animals per group. […] Tumor volume (TV) was calculated by the following equation: […] From the measurements, relative tumor volume (RTV) was calculated by the following equation: RTV=Vt/V0 Relative tumor growth ratio T/C (%) was calculated by the following equation: Criteria of efficacy evaluation: […] T/C %≦40% and statistically P<0.05, efficacious. Inhibition of tumor growth (%) was calculated by the following equation: Criteria of efficacy evaluation: […] The mean value was expressed in X±SD. Inter-group analysis was statistically performed with t test. The results were statistically analyzed using SPSS (Statistical Package for the Social Science) 17.0.
# [7] = test system: sarcoma S180 (ascites type); assay: Sarcoma S180 (ascites type) mice, 42±1° C. intraperitoneal retention lavage with deuterium oxide, oxaliplatin and mitomycin; format: in vivo, Kunming mice; details: oxaliplatin 0.8 mg/kg + glucose injection 5 ml/kg
# Method: Inhibition of sarcoma S180 (ascites type) in tumor-bearing mice by 42±1° C. hyperthermic intraperitoneal retention lavage using deuterium oxide in combination with oxaliplatin and using deuterium oxide in combination with oxaliplatin and mitomycin.
# Cell lines: sarcoma S180 (ascites type) cell line was provided by NANJING KEYGEN BIOTECH. CO., LTD.
# Modeling: 0.2 ml suspension of sarcoma S180 cells containing 1×10^7 cells/ml was inoculated into the peritoneal cavity of mice.
# Test drugs: oxaliplatin, mitomycin, and the glucose deuterium oxide solution as prepared in Example 2.
# Grouping and dosing: the mouse model was established 7 to 8 days after inoculation, and the mice were randomized with 12 animals/group.
# Oxaliplatin and mitomycin were dissolved in a 42±1° C. glucose deuterium oxide solution, and used to lavage the peritoneal cavity of the tumor-bearing mice.
# Blank control group (5% glucose injection, 5 ml/kg); 2). Chemo group (oxaliplatin 0.8 mg/kg+5% glucose injection, 5 ml/kg); 3). Low-dose deuterium oxide+oxaliplatin group (5% glucose deuterium oxide solution, 5 ml/kg+oxaliplatin 0.8 mg/kg); 4). Mid-dose deuterium oxide+oxaliplatin group (5% glucose deuterium oxide solution, 20 ml/kg+oxaliplatin 0.8 mg/kg); 5). High-dose deuterium oxide+oxaliplatin group (5% glucose deuterium oxide solution, 40 ml/kg+oxaliplatin 0.8 mg/kg); 6). Low-dose deuterium oxide+oxaliplatin+mitomycin group (42±1° C. 5% glucose deuterium oxide solution, 5 ml/kg+oxaliplatin 0.8 mg/kg+mitomycin 0.4 mg/kg); 7). […]
# The peritoneal cavity was lavaged with the 42±1° C. glucose deuterium oxide solution in combination with the above composition, which were retained for 10 min in the peritoneal cavity after being introduced, which was repeated for 3 times. […] 24 hours after the administration of drugs was completed (on day 11), 4 mice from each group were sacrificed, the volume of ascitic fluid was measured, and bodies of the mice were dissected to observe the peritoneal organs and metastasis to lung. […]
structure (smiles),measurement,setting,value
"S=P(N1CC1)(N1CC1)N1CC1 [Thiotepa, thiotepa]",Body weight (g) Initial,[1],20.6 g
same,Tumor weight,[1]; control 2.87 ± 1.11,1.75 ± 1.06 g
same,"Body weight (g) End, given as change",[1]; control +3.1,+2.6 g
same,Inhibition (%),[1],39.0%
same,Inhibition (%),[1]; listed as thiotepa,39%
N.N.[Cl][Pt][Cl] [cisplatin],T/C(%),"[2]; room temperature, i.p. lavage x 5",137.1%
same,MST,"[2]; room temperature, i.p. lavage x 5, control 13.2 ± 1.9",18.1 ± 3.2 days
same,Ascitic fluid,"[2]; day 11, RT, control 14.85 ± 2.56",7.30 ± 2.32 mL
"CC(=O)O[C@H]1C(=O)[C@@]2(C)[C@H]([C@H](OC(=O)c3ccccc3)[C@]3(O)C[C@H](OC(=O)[C@H](O)[C@@H](NC(=O)c4ccccc4)c4ccccc4)C(C)=C1C3(C)C)[C@]1(OC(C)=O)CO[C@@H]1C[C@@H]2O [Paclitaxel, paclitaxel]",Tumor weight,[3]; control 3.22 ± 1.59,2.07 ± 1.06 g
same,"Body weight (g) End, given as change",[3]; control +4.0,+2.8 g
same,Inhibition (%),[3]; tumor weight,35.7%
same,Body weight (g) Initial,[4],18.3 g
same,Bone marrow DNA content (OD),[4]; control 0.931 ± 0.2011,0.881 ± 0.2502 OD
same,Tumor weight,[4]; control 4.07 ± 0.76,1.59 ± 0.40 g
same,"Body weight (g) End, given as change",[4]; control +3.3,+1.0 g
same,Inhibition (%),[4]; tumor weight,60.93%*
same,Body weight (g) Initial,[5],18.4 g
same,Tumor weight,[5],0.94 ± 0.25 g
same,Tumor weight,[5]; listed as paclitaxel,0.94 ± 0.25 g
same,"Body weight (g) End, given as change",[5]; control +1.4,+0.9 g
same,Inhibition (%),[5],67.97* %
same,Inhibition (%),[5]; listed as paclitaxel,67.97%
same,Body weight (g) Initial,"[6]; Paclitaxel 8 mg/kg × 11, tail vein",18.4 g
same,Bone marrow DNA content (OD),"[6]; Paclitaxel 8 mg/kg × 11, tail vein, control 0.950 ± 0.2711",0.841 ± 0.3014 OD
same,Tumor weight,"[6]; Paclitaxel 8 mg/kg × 11, tail vein, control 2.92 ± 0.27",0.94 ± 0.25 g
same,"Body weight (g) End, given as change","[6]; Paclitaxel 8 mg/kg × 11, tail vein, control +0.4",-1.2 g
same,Body weight (g) Initial,"[6]; Paclitaxel 8 mg/kg × 11, tail vein, listed as paclitaxel",18.4 ± 0.5 g
same,body weight at end,[6]; high-dose paclitaxel positive control,16.8 ± 0.9 g
same,Inhibition (%),"[6]; tumor weight, Paclitaxel 8 mg/kg × 11, tail vein",67.80%*
O=C1[O][Pt]2([NH][C@@H]3CCCC[C@H]3[NH]2)[O]C1=O [oxaliplatin],Ascitic fluid,"[7]; day 11, control 16.5 ± 4.3",8.7 ± 1.9 mL
same,T/C(%),[7]; i.p. lavage x 5,177.6%
same,MST,"[7]; i.p. lavage x 5, control 12.2 ± 3.0",21.7 ± 2.8 days
